Values belong to the compound of their own block, whether it stands above or below them.
Legend:
[1] = Evaluation of oral absorbability (plasma concentration after oral administration); format: in vivo; settings: 0.5% HPMC, BALB/cA mouse, plasma 0.5-6 hours
Method: The test compound was suspended or dissolved in 0.5% HPMC and orally administered to a BALB/cA mouse. The blood was drawn from the retro-orbital venous plexus 0.5, 1, 2, 4, and 6 hours after oral administration to obtain plasma. The concentration of the compound in the plasma thus obtained was measured by LCMS and the oral absorbability was evaluated.

[2] = system: human uterine cervical cancer cell line (Hela-Luc); assay: Evaluation of the anti-tumor effect (2), Hela-Luc subcutaneous transplant; format: in vivo, nude mouse; settings: for BWC (body weight change) / RTV (relative tumor volume): Day 11, paclitaxel 20 mg/kg i.v. day 1; for potentiation of the anti-tumor effect of paclitaxel (in words): combination with paclitaxel versus paclitaxel-only group
[3] = system: human uterine cervical cancer cell line (Hela-Luc); assay: Evaluation of the anti-tumor effect (1), Hela-Luc subcutaneous transplant; settings: for BWC (body weight change) / RTV (relative tumor volume): paclitaxel 30 mg/kg i.v. day 1, compound 60 mg/kg orally twice a day on day 2 and day 3; for potentiation of the anti-tumor effect of paclitaxel (in words): combination with paclitaxel versus paclitaxel-only group
Description: The luciferase-introduced human uterine cervical cancer cell line (Hela-Luc) was subcutaneously transplanted into a nude mouse, and when the volume of the grafted tumor reached 100 to 200 mm^3, five mice in one group were grouped into the single drug administration group and combinational administration group by a randomized stratification method so as to achieve a uniform tumor volume in each group (day 1). […] In order to compare the anti-tumor effect brought about by drug administration, setting the tumor volume at the time of grouping at 1, the relative tumor volume (RTV) was determined in accordance with the following formula as a rate of tumor proliferation. RTV=(Tumor volume on the day of measurement of tumor volume)/(Tumor volume at the time of grouping)
Meanwhile, as the index of systemic toxicity caused by drug administration, the body weight change (BWC) was used. BWC (%)=([(Body weight of mouse on the day of body weight measurement)−(Body weight of mouse at the time of grouping)]/(Body weight of mouse at the time of grouping))×100

[4] = target: human aurora B (Homo sapiens (Human), UniProt Q96GD4); assay: Inhibitory activity on aurora B kinase; format: biochemical; settings: ATP 40 μM, 60 minutes
Sequence of human aurora B (Q96GD4 whole entry): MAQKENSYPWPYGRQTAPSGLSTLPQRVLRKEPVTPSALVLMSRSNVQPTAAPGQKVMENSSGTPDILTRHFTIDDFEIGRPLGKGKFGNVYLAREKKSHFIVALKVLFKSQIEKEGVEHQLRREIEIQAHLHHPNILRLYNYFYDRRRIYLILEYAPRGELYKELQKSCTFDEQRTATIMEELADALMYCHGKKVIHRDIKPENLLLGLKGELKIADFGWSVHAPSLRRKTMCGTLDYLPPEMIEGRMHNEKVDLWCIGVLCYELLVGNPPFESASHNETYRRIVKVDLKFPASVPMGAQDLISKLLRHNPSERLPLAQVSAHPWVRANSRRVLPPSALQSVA
Sequence of human aurora B (Q9NQS7 803-918 partner): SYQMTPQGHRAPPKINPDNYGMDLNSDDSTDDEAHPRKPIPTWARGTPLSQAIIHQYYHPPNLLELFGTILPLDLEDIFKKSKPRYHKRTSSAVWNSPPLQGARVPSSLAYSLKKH
Method: (§1) The inhibitory activity of a test compound on aurora A and aurora B was measured in accordance with the following method.

[5] = target: human aurora A (Homo sapiens (Human), UniProt O14965); assay: Inhibitory activity on aurora A kinase (IMAP fluorescence polarization); format: biochemical
Sequence of human aurora A (O14965 whole entry): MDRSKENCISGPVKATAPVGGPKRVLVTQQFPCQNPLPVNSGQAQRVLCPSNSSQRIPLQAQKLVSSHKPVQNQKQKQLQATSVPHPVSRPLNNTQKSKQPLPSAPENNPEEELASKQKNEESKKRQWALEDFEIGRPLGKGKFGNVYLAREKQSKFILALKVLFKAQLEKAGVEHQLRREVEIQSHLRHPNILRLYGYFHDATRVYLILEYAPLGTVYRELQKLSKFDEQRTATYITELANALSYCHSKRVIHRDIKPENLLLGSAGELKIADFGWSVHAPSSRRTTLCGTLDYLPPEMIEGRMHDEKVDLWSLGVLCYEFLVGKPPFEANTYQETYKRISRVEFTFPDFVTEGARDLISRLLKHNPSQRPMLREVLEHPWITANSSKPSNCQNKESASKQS
Method: as §1
The cDNA encoding human aurora A having a N-term fused histidine tag was inserted into an expression vector and this protein was expressed at a high level in the E. coli BL21-CodonPlus (DE3)-RIL strain. The E. coli were collected and solubilized, and histidine tag-fused human aurora A protein was extracted by adsorption to a nickel chelate column and then eluted with imidazole from the column. The active fraction was desalted with a desalting column, whereby a purified enzyme was obtained.

[6] = Compound 13 30 mg/kg orally twice a day on day 2 and day 3
[7] = Compound 22 100 mg/kg (single) or 60 mg/kg (combination) orally twice a day on day 2 and day 3

oral absorbability (plasma concentration after oral administration) [1]: favorable oral absorbability
SMILES: COc1ccc(CC2(C(=O)O)CCN(C(=O)c3cccc(Cl)c3F)CC2)nc1Nc1cc(C)[nH]n1 [Example 11, 1-(3-chloro-2-fluorobenzoyl)-4-((5-methoxy-6-(5-methyl-1H-pyrazol-3-ylamino)pyridin-2-yl)methyl)piperidine-4-carboxylic acid]

oral absorbability (plasma concentration after oral administration) [1]: favorable oral absorbability
SMILES: Cc1cc(Nc2nc(CC3(C(=O)O)CCN(C(=O)c4cccc(Cl)c4F)CC3)ccc2Cl)n[nH]1 [Example 12, 1-(3-chloro-2-fluorobenzoyl)-4-((5-chloro-6-(5-methyl-1H-pyrazol-3-ylamino)pyridin-2-yl)methyl)piperidine-4-carboxylic acid]

oral absorbability (plasma concentration after oral administration) [1]: favorable oral absorbability
SMILES: Cc1cc(Nc2nc(CC3(C(=O)O)CCN(C(=O)c4cccc(Cl)c4Cl)CC3)ccc2F)n[nH]1 [Example 1, 1-(2,3-dichlorobenzoyl)-4-((5-fluoro-6-(5-methyl-1H-pyrazol-3-ylamino)pyridin-2-yl)methyl)piperidine-4-carboxylic acid]
BWC (body weight change) ([3]; Day 23): 11.6% | RTV (relative tumor volume) ([3]; Day 23): 10.47 | potentiation of the anti-tumor effect of paclitaxel (in words) [3]: remarkably potentiated

oral absorbability (plasma concentration after oral administration) [1]: favorable oral absorbability
SMILES: Cc1cc(Nc2nc(CC3(C(=O)O)CCN(C(=O)c4cccc(Cl)c4F)CC3)ccc2F)n[nH]1 [Example 13, 1-(3-chloro-2-fluorobenzoyl)-4-((5-fluoro-6-(5-methyl-1H-pyrazol-3-ylamino)pyridin-2-yl)methyl)piperidine-4-carboxylic acid]
BWC (body weight change) [2, 6]: 6.0% | RTV (relative tumor volume) [2, 6]: 6.54 | potentiation of the anti-tumor effect of paclitaxel (in words) [2]: remarkably potentiated

IC50 ([5]; ATP 5 μM, 25° C., 50 minutes): 220 nM | IC50 [4]: 320 nM
SMILES: Cc1cc(Nc2nc(CC3(C(=O)O)CCN(C(=O)c4cccc(Cl)c4F)CC3)ccc2C#N)n[nH]1 [Comparative Example 6, 1-(3-chloro-2-fluorobenzoyl)-4-((5-cyano-6-(5-methyl-H-pyrazol-3-ylamino)pyridin-2-yl)methyl)piperidine-4-carboxylic acid]
inhibitory activity on aurora A and selectivity for aurora A (in words) ([5]; compared with aurora B and with MLN8237): did not exhibit either inhibitory activity on aurora A or selectivity for aurora A

Further lines, the compound ahead of its results:

SMILES: CC(=O)O[C@H]1C(=O)[C@@]2(C)[C@H]([C@H](OC(=O)c3ccccc3)[C@]3(O)C[C@H](OC(=O)[C@H](O)[C@@H](NC(=O)c4ccccc4)c4ccccc4)C(C)=C1C3(C)C)[C@]1(OC(C)=O)CO[C@@H]1C[C@@H]2O [Paclitaxel, paclitaxel]
BWC (body weight change) [2, 6]: 5.4% | RTV (relative tumor volume) [2, 6]: 2.90 | BWC (body weight change) [2, 7]: 7.8% | RTV (relative tumor volume) [2, 7]: 3.05 | BWC (body weight change) ([3]; Day 23): 3.0% | RTV (relative tumor volume) ([3]; Day 23): 0.69 | BWC (body weight change) ([3]; Day 46): 11.6% | RTV (relative tumor volume) ([3]; Day 46): 5.38 | DCR (disease control rate) ([3]; Day 46, ratio of individuals in which RTV does not exceed 1): 40%

SMILES: Cc1cc(Nc2nc(CC3(C(=O)N4CCC4)CCN(C(=O)c4cccc(Cl)c4F)CC3)ccc2F)n[nH]1 [Example 19, azetidin-1-yl(1-(3-chloro-2-fluorobenzoyl)-4-((5-fluoro-6-(5-methyl-1H-pyrazol-3-ylamino)pyridin-2-yl)methyl)piperidin-4-yl)methanone]
IC50 [4]: 680 nM

SMILES: O=C(c1cccc(Cl)c1F)N1CCC(Cc2cccc(Nc3cc[nH]n3)n2)(c2n[nH]c(=O)o2)CC1 [Comparative Example 1, 5-(1-(3-chloro-2-fluorobenzoyl)-4-((6-(1H-pyrazol-3-ylamino)pyridin-2-yl)methyl)piperidin-4-yl)-1,3,4-oxadiazol-2(3H)-one]
BWC (body weight change) ([3]; Day 23): 11.6% | RTV (relative tumor volume) ([3]; Day 23): 15.23 | potentiation of the anti-tumor effect of paclitaxel (in words) [3]: did not clearly potentiate the anti-tumor effect

SMILES: Cc1cc(Nc2nc(CC3(c4noc(C)n4)CCN(C(=O)c4cccc(Cl)c4F)CC3)ccc2F)n[nH]1 [Example 22, (3-chloro-2-fluorophenyl)(4-((5-fluoro-6-(5-methyl-1H-pyrazol-3-ylamino)pyridin-2-yl)methyl)-4-(5-methyl-1,2,4-oxadiazol-3-yl)piperidin-1-yl)methanone]
oral absorbability (plasma concentration after oral administration) [1]: favorable oral absorbability | BWC (body weight change) [2, 7]: 6.9% | RTV (relative tumor volume) [2, 7]: 4.66 | potentiation of the anti-tumor effect of paclitaxel (in words) [2]: remarkably potentiated

From US9346787B2, “Piperidine compound or salt thereof” (TAIHO PHARMACEUTICAL CO., LTD., priority 2012, dated 2016)
